Results published in PubChem BioAssay AID1013 (Columbia University Molecular Screening Center, 2008).
The source made the active and inactive calls. The rule behind the calls is not given here.

Experiments:
[1] = inhibitors of TNFa-induced VCAM1 expression, confirmation, imaging, TNFa stimulus, retest and dose response (AID 1013); conditions: TNFa-stimulated cells, VCAM1 expression imaging; cell count; at 10 µM; stronger effect = lower value;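 for cell count: compound on cells 1 h before TNFa then 24 h more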
[2] = system: TNFa-stimulated cells, VCAM1 expression imaging; test: as above

| Compound | cell count [1] [%] | IC50 [2] |
| --- | --- | --- |
| Cc1ccc(-n2ncc3c(N4CCN(c5ccccc5)CC4)ncnc32)c(C)c1 | 111 | > 10 µM (inactive) |
| O=C1C(=O)c2ccc(-c3ccccc3)cc2-c2ccccc21 | 109 | > 10 µM (inactive) |
| Cc1ccccc1CS(=O)(=O)c1nnc([C@H](Cc2ccccc2)NC(=O)OC(C)(C)C)o1 | 114 | > 10 µM (inactive) |
| O=C1c2cccc3c([N+](=O)[O-])ccc(c23)C(=O)N1c1nccs1 | 101 | > 10 µM (inactive) |
| CCCC1=Nc2cc(C(=O)NCCCOCC)ccc2Sc2ccccc21 | 31.7 | 1.01 µM |
| O=S(=O)(c1ccc2c(c1)C(=NO)c1cc(S(=O)(=O)N3CCCCC3)ccc1-2)N1CCCCC1 | 118 | > 10 µM (inactive) |
| CC(C)Oc1ccccc1C1CC(=O)Nc2cc3c(cc21)OCO3 (stereo not given) | 80.6 | > 10 µM (inactive) |
| COC(=O)C[C@]1(C(=O)OC)CN(C#N)N(c2ccc(Cl)cc2)C12c1ccccc1-c1ccccc12 | 104 | > 10 µM (inactive) |
| NC(=S)N/N=C\c1ccc(-c2cccc(Cl)c2Cl)o1 | 106 | > 10 µM (inactive) |
| COc1ccc(C(=O)C(CN2CCOCC2)c2ccccc2)cc1 (stereo not given) | 73.8 | 2.68 µM |
| CCOc1ccc(S(=O)(=O)Nc2cc(OC)ccc2OC)cc1 | 45.4 | 1.78 µM |
| O=C(c1ccc(Br)cc1)c1cc([N+](=O)[O-])ccc1N1CCCCC1 | 102 | > 10 µM (inactive) |
| COc1ccc(-n2nnnc2S(=O)(=O)CC(=O)N2CCCCC2)cc1 | 4.64 | 3.02 µM |
| CC1=CC(C)(C)N(S(=O)(=O)c2ccc(C)cc2)c2cc(C)ccc21 | 113 | > 10 µM (inactive) |
| Cc1ccc2[nH]c3c(c2c1)CCC3=O | 72 | 1 µM |
| Cc1ccc(NC2=C/C(=N\S(=O)(=O)c3cccs3)c3ccccc3C2=O)c(C)c1 | 104 | > 10 µM (inactive) |
| CCN1/C(=C\C=C\C2=[N+](CC)c3ccccc3C2(C)C)C(C)(C)c2ccccc21 | 60.4 | 0.41 µM |
| Cc1ccc(O)c(NC(=O)CCC2CCCCC2)c1 | 113 | > 10 µM (inactive) |
| C=CCn1c(SCc2c(C)noc2C)nc2ccccc2c1=O | 43.3 | > 10 µM (inactive) |
| CCC(C)[C@@H](NC(=O)OC(C)(C)C)c1nnc(S(=O)(=O)Cc2cccc(C)c2)o1 (stereo not given in full) | 95.6 | > 10 µM (inactive) |
| N#CC1=C(N)Oc2c(ccc3ccccc23)C1c1cccs1 (stereo not given) | 69.2 | > 10 µM (inactive) |
| COc1ccc(C2=Nn3c(nnc3-c3ccc(OC)cc3)SC2)cc1 | 114 | > 10 µM (inactive) |
| OCCN=C1CCCc2c1[nH]c1ccc(Br)cc21 | 76.3 | 0.15 µM |
| CCOc1ccccc1C(=O)N1CCN(c2cccc(Cl)c2)CC1 | 15.7 | 0.231 µM |
| COC(=O)c1ccccc1NC(=O)Cn1c(-c2nonc2N)nc2ccccc21 | 104 | > 10 µM (inactive) |
| O=C(c1ccco1)N1CCN(C(=O)N2c3ccccc3Sc3ccccc32)CC1 | 40.3 | 3.52 µM |
| Cc1cc(C)c2nc(SCC(=O)N3CC(=O)Nc4ccccc43)c(C#N)cc2c1 | 47.2 | 4.81 µM |

| Compound | cell count [1] [%] | IC50 [2] |
| --- | --- | --- |
| CC(=O)c1ccc(Oc2cc(C)nc(-n3nc(C)cc3C)n2)cc1 | 46.9 | 3.83 µM |
| CC(C)(C)C(=O)/C(=C\c1cccc([N+](=O)[O-])c1)n1cncn1 | 1.73 | 1.09 µM |
| COc1cc(-c2nnc3n2N=C(c2ccccc2)CS3)cc(OC)c1OC | 99.8 | > 10 µM (inactive) |
| CN(C)c1ccc(C(=O)c2ccc(N(C)C)c3ccccc23)cc1 | 27.7 | 1.72 µM |
| CC(/C=N/NC(=O)c1cc(-c2ccc(Cl)cc2)nc2ccccc12)=C\c1ccco1 | 116 | > 10 µM (inactive) |
| CCOC(=O)C1=C(c2ccccc2)O/C(=C(/C#N)C(F)(F)F)S1 | 107 | > 10 µM (inactive) |
| CC(/C=N/NC(=O)c1cc(-c2ccncc2)nc2ccccc12)=C\c1ccco1 | 30.4 | 3.6 µM |
| Cc1ccc(C(=O)c2cc([N+](=O)[O-])ccc2N2CCOCC2)c(C)c1 | 41.4 | 2.86 µM |
| Cc1cc(NC(=O)CSc2nc(-c3cccs3)cc(C(F)(F)F)n2)no1 | 111 | > 10 µM (inactive) |
| COc1cc(/C=N/Nc2snc(SC)c2C#N)ccc1O | 105 | > 10 µM (inactive) |
| CCOC(=O)Nc1nc(-c2ccccc2)c(C(=O)c2ccccc2)s1 | 61.6 | > 10 µM (inactive) |
| CN1Cc2cc(C(=O)c3cc(Cl)cc(CSc4ncccn4)c3O)cnc2NC1=O | 85.8 | > 10 µM (inactive) |
| COc1ccc(OC)c(C2C3=C(COC3=O)Nc3cc4c(cc32)OCO4)c1 (stereo not given) | 112 | > 10 µM (inactive) |
| CCn1c2ccccc2c2cc(NC(=O)c3cc(OC)c(OC)c(OC)c3)ccc21 | 33.6 | 2.79 µM |
| O=C(NC(Nc1nc2ccc([N+](=O)[O-])cc2s1)(C(F)(F)F)C(F)(F)F)c1ccccc1 | 46.9 | 0.34 µM |
| CC1=C([N+](=O)[O-])C(c2ccccc2)C2=C(N1)c1ccccc1C2=O (stereo not given) | 111 | > 10 µM (inactive) |
| Cc1cc(NC(=O)CSc2nc3ccccc3c(=O)n2C2CCCC2)no1 | 111 | > 10 µM (inactive) |
| Cc1c(C(=O)OCC(C)C)[nH]c2c1C(=O)CC(c1ccco1)C2 (stereo not given) | 48.4 | > 10 µM (inactive) |
| O=[N+]([O-])/C=C/c1c(OCc2ccccc2)ccc2ccccc12 | 112 | > 10 µM (inactive) |
| O=Cc1cc2ccccc2nc1SCc1ccc(Cl)c(Cl)c1 | 109 | > 10 µM (inactive) |
| CCCOc1ccccc1C1CC(=O)Nc2cc3c(cc21)OCCO3 (stereo not given) | 113 | > 10 µM (inactive) |
| O=S(=O)(c1ccc(Cl)cc1)c1snnc1-c1ccccc1 | 71.6 | 4.86 µM |
| Cc1cccc(CS(=O)(=O)c2nnc([C@H](Cc3ccccc3)NC(=O)OC(C)(C)C)o2)c1 | 99.2 | > 10 µM (inactive) |
| COc1ccc(C2=Nn3c(nnc3-c3ccccc3OC)SC2)cc1OC | 46.9 | 0.557 µM |
| COc1ccc(NC(=O)/C(Cl)=C(/Cl)S(=O)Cc2ccccc2)cn1 (stereo not given) | 34.2 | 1.06 µM |
| CCN(CC)c1ccc(C2=NNC(=O)CC2C)cc1[N+](=O)[O-] (stereo not given) | 50.8 | 0.0384 µM |
| Cc1ccc2[nH]c(-c3ccccc3)cc(=O)c2c1 | 63.3 | 4.49 µM |

| Compound | cell count [1] [%] | IC50 [2] |
| --- | --- | --- |
| COc1ccc(CCNc2nnc(Sc3nnnn3-c3ccccc3)s2)cc1OC | 27.4 | 1.61 µM |
| Cc1cccc(NC(=O)CSc2nc3ccc(NC(=O)CSc4nnnn4-c4ccccc4)cc3s2)c1C | 107 | > 10 µM (inactive) |
| O=C1CCCc2c1[nH]c1ccc(Cl)cc21 | 61.6 | 0.888 µM |
| CCOC(=O)c1[nH]c(C)c(C(=O)c2cc(F)ccc2F)c1C | 70.7 | 0.6 µM |
| COc1ccc(C(=O)C(CN2CCCC2)c2ccccc2)cc1 (stereo not given) | 73.4 | 2.07 µM |
| O=C(N/N=C/C(Br)=C/c1ccccc1)c1n[nH]c2c1CCC2 | 28.6 | 0.0993 µM |
| CC1=C([N+](=O)[O-])C(c2cccc(Br)c2)C2=C(N1)c1ccccc1C2=O (stereo not given) | 68.1 | > 10 µM (inactive) |
| CCOC(=O)c1[nH]c(C)c(C(=O)N2CCc3ccccc32)c1C | 61.8 | 0.778 µM |
| CCC1=Nc2cc(C(=O)NCCCOC)ccc2Sc2ccccc21 | 34.9 | 1.67 µM |
| Cc1cc(=O)oc2cc(OCC3CC(c4ccccc4Cl)=NO3)ccc12 (stereo not given) | 106 | > 10 µM (inactive) |
| Oc1ccc(Nc2nc(-c3ccc4ccccc4c3)cs2)cc1 | 92.9 | > 10 µM (inactive) |
| COc1cc(C(=O)N/N=C/c2ccsc2C)cc(OC)c1OC | 48.6 | > 10 µM (inactive) |
| O=[N+]([O-])c1ccc(Sc2nc3ccccc3o2)c([N+](=O)[O-])c1 | 106 | > 10 µM (inactive) |
| COc1cc2c(O)c3c(c(-c4ccc5c(c4)OCO5)c2cc1OC)C(=O)OC3 | 86.8 | 3.24 µM |
| C#CC(=O)N(c1cccc(OC)c1)C(C(=O)NC1CCCC1)c1cccs1 (stereo not given) | 0.98 | 1.77 µM |
| CCN(CC)c1ccc(-c2nn3c(-c4n[nH]c5c4CCC5)nnc3s2)cc1 | 57.7 | > 10 µM (inactive) |
| Nc1nnnn1/N=C/C(Br)=C/c1ccccc1 | 106 | > 10 µM (inactive) |
| COc1ccc(NC(=O)/C(Cl)=C(/Cl)S(=O)Cc2ccc(C)cc2)cn1 (stereo not given) | 55 | 2.19 µM |
| Cc1ccc(CSc2nc3ccccc3cc2C=O)cc1 | 110 | > 10 µM (inactive) |
| O=C(OCn1ncc(Br)c(Br)c1=O)c1c(F)cccc1F | 54.9 | 8.04 µM |
| COc1ccc(N=c2oc3ccc(OC)cc3cc2-c2nc3ccccc3[nH]2)cc1 | 110 | > 10 µM (inactive) |
| Cc1ccc(Cl)cc1NC1=C/C(=N\S(=O)(=O)c2cccs2)c2ccccc2C1=O | 123 | > 10 µM (inactive) |
| O=C(N/N=C/C(Br)=C\c1ccccc1)c1n[nH]c2c1CCC2 | 29.2 | 0.636 µM |
| NC(=S)N/N=C/c1ccc(-c2ccc(Cl)c(Cl)c2)o1 | 93.5 | > 10 µM (inactive) |
| COc1ccc(NC(=O)/C(Cl)=C(/Cl)S(=O)(=O)Cc2ccc(C)cc2)cn1 | 22.9 | 3.25 µM |
| CCOC(=O)c1[nH]c(C)c(C(=O)c2ccc(C)cc2)c1C | 85.6 | > 10 µM (inactive) |
